Laboratory results: patent US20210045385A1, “PYRIDAZINONE-SUBSTITUTED KETOXIMES AS HERBICIDES” (FMC Corporation, priority 2018, published 2021)

What was measured:
Type in all cases: in vivo
[1] = test system: ducksalad (Heteranhera limosa); experiment: Test B flooded paddy test, visual plant response rating; conditions: 250 g ai/ha, Flood, applied to paddy water, 2-leaf stage, evaluated after 13 to 15 days
How it was run: (§1)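 At the two-leaf stage, seedlings received compound applied to paddy water flooded 3 cm above soil, a level sustained until assessment. Greenhouse incubation lasted 13 to 15 days before visual comparison with control plants.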

rice (Oryza sativa) = experiment: as above; conditions: 250 g ai/ha, Flood, applied to paddy water, 2-leaf stage, evaluated after 13 to 15 days
How it was run: as §1

[2] = test system: sedge, umbrella (small-flower umbrella sedge, Cyperus difformis); experiment: as above; conditions: 250 g ai/ha, Flood, applied to paddy water, 2-leaf stage, evaluated after 13 to 15 days
How it was run: as §1

[3] = test system: barnyardgrass (Echinochloa crus-galli); experiment: as above; conditions: 250 g ai/ha, Flood, applied to paddy water, 2-leaf stage, evaluated after 13 to 15 days
How it was run: as §1

kochia (Kochia scoparia) [4] = experiment: Test A preemergence, visual plant response rating; conditions: for Kochia plant response rating: 125 g ai/ha, preemergence, 0 to 100 scale, 0 no effect, 100 complete control; for Kochia plant response rating (0 to 100 scale): 500 g ai/ha Preemergence, approx. 10 days
How it was run: (§2)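 Greenhouse pot test in loam–sand soil mix: compound in a surfactant-containing non-phytotoxic solvent applied preemergence (directed soil spray) or postemergence (one- to two-leaf plants, 2–10 cm). Injury scored visually after ~10 days, 0–100.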

[5] = test system: Italian ryegrass (Lolium multiflorum); experiment: Test A preemergence, visual plant response rating; conditions: for Ryegrass, Italian plant response rating: 125 g ai/ha, preemergence, 0 to 100 scale, 0 no effect, 100 complete control; for Ryegrass, Italian plant response rating (0 to 100 scale): 500 g ai/ha Preemergence, approx. 10 days
How it was run: as §2

[6] = test system: foxtail, giant (giant foxtail, Setaria faberii); experiment: Test A preemergence, visual plant response rating; conditions: for Foxtail, Giant plant response rating: 125 g ai/ha, preemergence, 0 to 100 scale, 0 no effect, 100 complete control; for Foxtail, Giant plant response rating (0 to 100 scale): 500 g ai/ha Preemergence, approx. 10 days
How it was run: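 Formulated in a non-phytotoxic solvent mixture including surfactant, each test chemical was sprayed onto the soil surface after sowing, or onto seedlings 2 to 10 cm high. Roughly 10 days later, plants were compared with untreated controls and rated for injury from 0 (no effect) to 100 (complete control).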

[7] = test system: pigweed (Amaranthus retroflexus); experiment: Test A preemergence, visual plant response rating; conditions: for Pigweed plant response rating: 125 g ai/ha, preemergence, 0 to 100 scale, 0 no effect, 100 complete control; for Pigweed plant response rating (0 to 100 scale): 500 g ai/ha Preemergence, approx. 10 days
How it was run: as §2

[8] = test system: ragweed (common ragweed, Ambrosia elatior); experiment: Test A preemergence, visual plant response rating; conditions: for Ragweed plant response rating: 125 g ai/ha, preemergence, 0 to 100 scale, 0 no effect, 100 complete control; for Ragweed plant response rating (0 to 100 scale): 500 g ai/ha Preemergence, approx. 10 days
How it was run: as §2

[9] = test system: barnyardgrass (Echinochloa crus-galli); experiment: Test A preemergence, visual plant response rating; conditions: for Barnyardgrass plant response rating: 125 g ai/ha, preemergence, 0 to 100 scale, 0 no effect, 100 complete control; for Barnyardgrass plant response rating (0 to 100 scale): 500 g ai/ha Preemergence, approx. 10 days
How it was run: as §2

corn (Zea mays) = experiment: Test A postemergence, visual plant response rating; conditions: for Corn plant response rating (0 to 100 scale): 500 g ai/ha, postemergence, 0 is no effect, 100 is complete control; for Corn plant response rating: Postemergence, 125 g ai/ha, 0 to 100 scale (0 no effect, 100 complete control)
Excerpt: (§3) Seeds of plant species selected from barnyardgrass (Echinochloa crus-galli), kochia (Kochia scoparia), ragweed (common ragweed, Ambrosia elatior), Italian ryegrass (Lolium multiflorum), foxtail, giant (giant foxtail, Setaria faberii), foxtail, green (green foxtail, Setaria viridis), and pigweed (Amaranthus retroflexus) were planted into a blend of loam soil and sand and treated preemergence with a directed soil spray using test chemicals formulated in a non-phytotoxic solvent mixture which included a surfactant.
(§4) At the same time, plants selected from these weed species and also wheat (Triticum aestivum), corn (Zea mays), blackgrass (Alopecurus myosuroides), and galium (catchweed bedstraw, Galium aparine) were planted in pots containing the same blend of loam soil and sand and treated with postemergence applications of test chemicals formulated in the same manner. Plants ranged in height from 2 to 10 cm and were in the one- to two-leaf stage for the postemergence treatment. Treated plants and untreated controls were maintained in a greenhouse for approximately 10 days, after which time all treated plants were compared to untreated controls and visually evaluated for injury. Plant response ratings, summarized in Table A, are based on a 0 to 100 scale where 0 is no effect and 100 is complete control. A dash (-) response means no test result.

kochia (Kochia scoparia) [10] = experiment: Test A postemergence, visual plant response rating; conditions: for Kochia plant response rating (0 to 100 scale): 500 g ai/ha, postemergence, 0 is no effect, 100 is complete control; for Kochia plant response rating: Postemergence, 125 g ai/ha, 0 to 100 scale (0 no effect, 100 complete control)
Excerpt: as §3, §4

[11] = test system: Italian ryegrass (Lolium multiflorum); experiment: Test A postemergence, visual plant response rating; conditions: for Ryegrass, Italian plant response rating (0 to 100 scale): 500 g ai/ha, postemergence, 0 is no effect, 100 is complete control; for Ryegrass, Italian plant response rating: Postemergence, 125 g ai/ha, 0 to 100 scale (0 no effect, 100 complete control)
Excerpt: as §3, §4

[12] = test system: foxtail, giant (giant foxtail, Setaria faberii); experiment: Test A postemergence, visual plant response rating; conditions: for Foxtail, Giant plant response rating (0 to 100 scale): 500 g ai/ha, postemergence, 0 is no effect, 100 is complete control; for Foxtail, Giant plant response rating: Postemergence, 125 g ai/ha, 0 to 100 scale (0 no effect, 100 complete control)
Excerpt: as §3, §4

[13] = test system: blackgrass (Alopecurus myosuroides); experiment: Test A postemergence, visual plant response rating; conditions: for Blackgrass plant response rating (0 to 100 scale): 500 g ai/ha, postemergence, 0 is no effect, 100 is complete control; for Blackgrass plant response rating: Postemergence, 125 g ai/ha, 0 to 100 scale (0 no effect, 100 complete control)
Excerpt: as §3, §4

[14] = test system: pigweed (Amaranthus retroflexus); experiment: Test A postemergence, visual plant response rating; conditions: for Pigweed plant response rating (0 to 100 scale): 500 g ai/ha, postemergence, 0 is no effect, 100 is complete control; for Pigweed plant response rating: Postemergence, 125 g ai/ha, 0 to 100 scale (0 no effect, 100 complete control)
Excerpt: as §3, §4

[15] = test system: wheat (Triticum aestivum); experiment: Test A postemergence, visual plant response rating; conditions: for Wheat plant response rating (0 to 100 scale): 500 g ai/ha, postemergence, 0 is no effect, 100 is complete control; for Wheat plant response rating: Postemergence, 125 g ai/ha, 0 to 100 scale (0 no effect, 100 complete control)
Excerpt: as §3, §4

[16] = test system: ragweed (common ragweed, Ambrosia elatior); experiment: Test A postemergence, visual plant response rating; conditions: for Ragweed plant response rating (0 to 100 scale): 500 g ai/ha, postemergence, 0 is no effect, 100 is complete control; for Ragweed plant response rating: Postemergence, 125 g ai/ha, 0 to 100 scale (0 no effect, 100 complete control)
Excerpt: as §3, §4

[17] = test system: galium (catchweed bedstraw, Galium aparine); experiment: Test A postemergence, visual plant response rating; conditions: for Galium plant response rating (0 to 100 scale): 500 g ai/ha, postemergence, 0 is no effect, 100 is complete control; for Galium plant response rating: Postemergence, 125 g ai/ha, 0 to 100 scale (0 no effect, 100 complete control)
Excerpt: as §3, §4

[18] = test system: barnyardgrass (Echinochloa crus-galli); experiment: Test A postemergence, visual plant response rating; conditions: for Barnyardgrass plant response rating (0 to 100 scale): 500 g ai/ha, postemergence, 0 is no effect, 100 is complete control; for Barnyardgrass plant response rating: Postemergence, 125 g ai/ha, 0 to 100 scale (0 no effect, 100 complete control)
Excerpt: as §3, §4

Row | SMILES | Plant response rating, Ducksalad (0 to 100 scale, 0 is no effect, 100 is complete control) [1] | Plant response rating, Rice (0 to 100 scale, 0 is no effect, 100 is complete control) (rice (Oryza sativa)) | Plant response rating, Sedge, Umbrella (0 to 100 scale, 0 is no effect, 100 is complete control) [2] | Plant response rating, Barnyardgrass (0 to 100 scale, 0 is no effect, 100 is complete control) [3] | Kochia plant response rating (kochia (Kochia scoparia) [4]) | Kochia plant response rating (0 to 100 scale) (kochia (Kochia scoparia) [4]) | Ryegrass, Italian plant response rating [5] | Ryegrass, Italian plant response rating (0 to 100 scale) [5] | Foxtail, Giant plant response rating [6] | Foxtail, Giant plant response rating (0 to 100 scale) [6] | Pigweed plant response rating [7] | Pigweed plant response rating (0 to 100 scale) [7] | Ragweed plant response rating [8] | Ragweed plant response rating (0 to 100 scale) [8] | Barnyardgrass plant response rating [9] | Barnyardgrass plant response rating (0 to 100 scale) [9] | Corn plant response rating (0 to 100 scale) (corn (Zea mays)) | Corn plant response rating (corn (Zea mays)) | Kochia plant response rating (0 to 100 scale) (kochia (Kochia scoparia) [10]) | Kochia plant response rating (kochia (Kochia scoparia) [10]) | further results
1 | CCO/N=C(/c1c(O)c(C)nn(C)c1=O)c1ccc(F)c2ccccc12 [Compound 84] | 0 | 0 | 0 | 0 | 20 | 60 | 100 | 100 | 100 | 100 | 100 | 100 | 80 | 100 | 60 | 100 | 30 | 20 | 80 | 70 | Ryegrass, Italian plant response rating (0 to 100 scale) [11]: 100; Ryegrass, Italian plant response rating [11]: 90; Foxtail, Giant plant response rating (0 to 100 scale) [12]: 80; Foxtail, Giant plant response rating [12]: 70; Blackgrass plant response rating (0 to 100 scale) [13]: 100; Blackgrass plant response rating [13]: 90; Pigweed plant response rating (0 to 100 scale) [14]: 90; Pigweed plant response rating [14]: 80; Wheat plant response rating (0 to 100 scale) [15]: 50; Wheat plant response rating [15]: 40; Ragweed plant response rating (0 to 100 scale) [16]: 100; Ragweed plant response rating [16]: 90; Galium plant response rating (0 to 100 scale) [17]: 100; Galium plant response rating [17]: 90; Barnyardgrass plant response rating (0 to 100 scale) [18]: 80; Barnyardgrass plant response rating [18]: 60
2 | CON=C(c1c(O)c(C)nn(C)c1=O)c1cccc2cc(F)ccc12 [Compound 119] | 0 | 0 | 0 | 0 | 30 | 80 | 30 | 100 | 80 | 100 | 80 | 100 | 90 | 90 | 50 | 80 | 40 | 10 | 70 | 70 | Ryegrass, Italian plant response rating (0 to 100 scale) [11]: 90; Ryegrass, Italian plant response rating [11]: 80; Foxtail, Giant plant response rating (0 to 100 scale) [12]: 80; Foxtail, Giant plant response rating [12]: 70; Blackgrass plant response rating (0 to 100 scale) [13]: 90; Blackgrass plant response rating [13]: 80; Pigweed plant response rating (0 to 100 scale) [14]: 90; Pigweed plant response rating [14]: 80; Wheat plant response rating (0 to 100 scale) [15]: 0; Wheat plant response rating [15]: 0; Ragweed plant response rating (0 to 100 scale) [16]: 90; Ragweed plant response rating [16]: 90; Galium plant response rating (0 to 100 scale) [17]: 100; Galium plant response rating [17]: 80; Barnyardgrass plant response rating (0 to 100 scale) [18]: 80; Barnyardgrass plant response rating [18]: 70
3 | C=CCc1ccccc1C(=NOC)c1c(O)c(C)nn(C)c1=O [Compound 122] | 0 | 0 | 0 | 0 | 0 | 10 | 50 | 60 | 10 | 80 | 20 | 90 | 10 | 50 | 0 | 30 | 10 | 0 | 50 | 40 | Ryegrass, Italian plant response rating (0 to 100 scale) [11]: 90; Ryegrass, Italian plant response rating [11]: 70; Foxtail, Giant plant response rating (0 to 100 scale) [12]: 70; Foxtail, Giant plant response rating [12]: 50; Blackgrass plant response rating (0 to 100 scale) [13]: 40; Blackgrass plant response rating [13]: 20; Pigweed plant response rating (0 to 100 scale) [14]: 70; Pigweed plant response rating [14]: 60; Wheat plant response rating (0 to 100 scale) [15]: 30; Wheat plant response rating [15]: 0; Ragweed plant response rating (0 to 100 scale) [16]: 60; Ragweed plant response rating [16]: 50; Galium plant response rating (0 to 100 scale) [17]: 80; Galium plant response rating [17]: 60; Barnyardgrass plant response rating (0 to 100 scale) [18]: 60; Barnyardgrass plant response rating [18]: 20
